In patent US20100249461A1, “TRIARYLAMINE DERIVATIVE” (priority 2007, published 2010):

How the values were obtained:
Assay type in all cases: physicochemical
[1] = Solubility in 2-butanone (MEK)
Procedure: Solubility (w/v %) of the triarylamine derivative in 2-butanone (MEK) was measured.

[2] = Wet heat resistance of PMMA film sample (colorant residual rate); settings: 5% by weight in PMMA film on PET; 60° C. and relative humidity of 90% for 200 hours; absorbance after vs before
Procedure: (§1) 2.5 g of PMMA and 0.125 g of the triarylamine derivative were dissolved in 25 ml of dichloromethane, and the solution was coated on a 100 μm-thick PET film. This was dried at 80° C. for 2 hours under reduced pressure to prepare a sample for assessment having a thickness of from 2 to 3 μm. The sample for assessment contained the triarylamine derivative at 5% by weight based on PMMA.
(§2) The sample for assessment obtained above was subjected to wet heat treatment at 60° C. and a relative humidity of 90% for 200 hours. The absorbance of the assessment sample at the maximum absorption wavelength of the triarylamine derivative (colorant) was measured, and a colorant residual rate (%) was obtained as a ratio of the absorbance after wet heat treatment relative to the absorbance before wet heat treatment.

[3] = Light resistance of PMMA film sample (colorant residual rate); settings: 5% by weight in PMMA film on PET; xenon lamp 170,000 lux, UV cut filter, 170 hours; absorbance after vs before
Procedure: as §1
as §2, with “irradiation-treated for 170 hours with” for “subjected to wet heat treatment at 60° C. and”, “xenon lamp (170,000 lux, using an UV cut filter).” for “relative humidity of 90% for 200 hours.”, “irradiation” for “wet heat”

[4] = Heat resistance of PMMA film sample (colorant residual rate); settings: 5% by weight in PMMA film on PET; 80° C. for 400 hours; absorbance at maximum absorption wavelength after vs before
Procedure: as §1
as §2, with “heat-treated” for “subjected to wet heat treatment”, “80°” for “60°”, “C.” for “C. and a relative humidity of 90%”, “400” for “200”, “after” for “after wet”, “before” for “before wet”

Structure (SMILES) | Solubility (w/v) [1] [% w/v %] | Wet Heat Resistance (colorant residual rate) [2] [%] | Light Resistance (colorant residual rate) [3] [%] | Heat Resistance (colorant residual rate) [4] [%]
CCCCN(CCCC)c1ccc([N+](=C2C=CC(=[N+](CCCC)CCCC)CC2)c2ccc(N(CCCC)CCCC)cc2)cc1 [drawing 14] | 16 | 45 | 98 | 80
CCCCN(CCCC)c1ccc([N+](=C2C=CC(=[N+](CCCC)CCCC)CC2)c2ccc(N(CCCC)CCCC)cc2)cc1 [drawing 15] | 15 | 19 | 80 | 0
